# Target: Tyrosine-protein kinase BTK (Homo sapiens, UniProt Q06187)
# Assay: BTK Kinase Activity Inhibition Test in Vitro
# Tyrosine-protein kinase BTK, sequence (Q06187 whole entry): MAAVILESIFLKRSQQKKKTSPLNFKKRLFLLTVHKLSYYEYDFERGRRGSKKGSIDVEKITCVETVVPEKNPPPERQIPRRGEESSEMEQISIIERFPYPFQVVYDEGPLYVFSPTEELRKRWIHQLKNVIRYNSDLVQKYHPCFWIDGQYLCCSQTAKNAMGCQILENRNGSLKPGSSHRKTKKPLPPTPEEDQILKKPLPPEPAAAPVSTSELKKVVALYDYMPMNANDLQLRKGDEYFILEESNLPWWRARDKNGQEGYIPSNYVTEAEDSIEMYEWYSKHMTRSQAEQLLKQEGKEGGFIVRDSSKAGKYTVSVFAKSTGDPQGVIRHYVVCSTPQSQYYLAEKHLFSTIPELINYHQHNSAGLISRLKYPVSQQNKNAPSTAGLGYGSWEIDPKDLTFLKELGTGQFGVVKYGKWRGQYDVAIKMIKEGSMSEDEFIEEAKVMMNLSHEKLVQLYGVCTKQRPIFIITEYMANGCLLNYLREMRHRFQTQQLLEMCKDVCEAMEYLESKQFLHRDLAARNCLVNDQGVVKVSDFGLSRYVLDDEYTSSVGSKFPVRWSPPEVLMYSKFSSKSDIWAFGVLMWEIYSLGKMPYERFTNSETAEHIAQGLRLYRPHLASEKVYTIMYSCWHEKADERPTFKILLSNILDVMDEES
row,IC50,Structure (SMILES)
1,< 5 nM,"Nc1nccn2c(C3CCC(CO)OC3)nc(-c3ccc(Oc4cccc(Cl)c4F)cc3)c12 (stereo unspecified) [US20230364079, Example 9]"
2,< 5 nM,"Nc1ncc(Cl)n2c(C3CCC(CO)OC3)nc(-c3ccc(Oc4cccc(OC(F)(F)F)c4F)cc3)c12 (stereo unspecified) [US20230364079, Example 14]"
3,< 5 nM,"COc1cccc(Oc2ccc(-c3nc(C4CCC(CO)OC4)n4c(Cl)cnc(N)c34)c(F)c2)c1F (stereo unspecified) [US20230364079, Example 11]"
4,< 5 nM,"Nc1nccn2c(C3CCC(CO)OC3)nc(-c3ccc(Oc4cccc(OC(F)(F)F)c4F)cc3)c12 (stereo unspecified) [US20230364079, Example 6]"
5,< 5 nM,"COc1cccc(Oc2ccc(-c3nc(C4CCC(CO)OC4)n4c(Cl)cnc(N)c34)cc2)c1F (stereo unspecified) [US20230364079, Example 12]"
6,< 5 nM,"Nc1nccn2c(C3CCC(CO)OC3)nc(-c3ccc(Oc4cccc(OC(F)(F)F)c4F)cc3F)c12 (stereo unspecified) [US20230364079, Example 13]"

# From BindingDB's records for patent US20230364079 (Chengdu Hyperway Pharmaceuticals, 2023)
